Experimental data from EP1059033A1, “INDUSTRIAL ANTIBACTERIAL/ANTIFUNGAL AGENTS, ALGICIDES AND ANTI-BIOLOGICAL ADHESION AGENTS CONTAINING BENZYLAMINES” (Nissan Chemical Industries, Ltd., priority 1998, dated 1999).
≈ marks a conversion by molar mass, not a printed value. Like-named read-outs stand apart in the source and are kept apart here.

Key:
[1] = system: Trichophyton mentagrophytes; type: cell-based; conditions: 72 h, 100 ppm
Protocol: 31.3 ml of Trichophyton mentagrophytes to be tested was added to 125 ml of a potato dextrose agar culture medium (Nissui Seiyaku Co.). The medium was stirred not to foam the solutions, poured into plates uniformly and solidified.
Thereafter, predetermined amounts of the compounds of the invention were weighted and diluted with acetone to predetermined concentrations.
Paper disks were impregnated with samples containing predetermined amounts of the compounds of the invention, laid on a filter, dried with air and placed on a plate containing test microbe at equal intervals.
Trichophyton mentagrophytes was cultured at 28 °C for 3 days in a thermostatic chamber and the diameter of each inhibiting zone was measured to evaluate the activity of each compound. Symbols in the table mean the followings; • A: Trichophyton mentagrophytes, • ++: strongly inhibiting zone (equal to or more than 21 mm) is observed, • +: inhibiting zone (10 to 20 mm) is observed, • -: no inhibiting zone is observed.

[2] = system: Trichophyton mentagrophytes; experiment: Agar dilution MIC (Example 2); type: cell-based; conditions: 168 h, agar plate, 27 °C, 7 days
Protocol: (§1) Series of diluted samples (20000, 10000, 5000, 2500, 2000, 1250, 625, 313, 156, 78, 39, 20, 10, 5, 2.5, 1.25 mg/l) of the compounds of the invention were prepared using dimethylsulfoxide. A sensitive culture medium-N (Nissui Seiyaku Co.) was used for bacteria and a potato dextrose agar culture medium (Nissui Seiyaku Co.) was used for fungi. 0.5 ml of each sample was added to and mixed with 9.5 ml of the culture medium, poured into a Petri dish and solidified to obtain a plate. As a result, the concentration of the compounds of the invention in the agar culture medium were 1000, 500, 250, 125, 100, 62.5, 31.3, 15.6, 7.8, 3.9, 2.0, 1.0, 0.5, 0.25, 0.125, 0.062 mg/l. The bacterium inoculated were cultured in a bouillon for the assay of sensitivity (Nissui Seiyaku Co.) at 37 °C for 20 hours, and the fungi were cultured in the potato dextrose agar culture medium (Nissui Seiyaku Co.) for 10 days and then a 10^6 CFU/ml suspension was prepared from each of them. A test bacteria or fungi suspension was streaked on an agar plate containing the compound of the present invention with platinum wire loop, and the agar plate was cultured at 37±1 °C for 18 to 20 hours for bacteria or at 27 °C for 7 days for fungi. A concentration at which no growth was seen was taken as minimum inhibitory concentration [MIC(mg/l)]. Symbols in the table mean the followings; • A: Bacillus subtilis, • B: Trichophyton mentagrophytes, • C: Rhodotorula mucilaginosa.

Bacillus subtilis [3] = experiment: Agar dilution MIC (Example 2); type: cell-based; conditions: agar plate, 37±1 °C, 18 to 20 hours
Protocol: as §1

[4] = system: freshwater green alga (Selenastrum capricornutum); experiment: Inhibition of propagation of freshwater green alga (Example 4); type: cell-based; conditions: for inhibition at 0.05 ppm: read-out: Propagation inhibiting rate(%) 50ppb; for inhibition at 0.5 ppm: read-out: Propagation inhibiting rate(%) 500ppb
Protocol: A predetermined amount of each of the compounds of the invention was dissolved in a culture medium containing 10^5 /ml of a freshwater green alga (Selenastrum capricornutum) at a logarithmic growth phase to prepare samples having a concentration of the compound of the invention in the medium of 500 ppb and 50ppb respectively. The samples were stationary cultured at 23±1 °C for […] under continuous illumination.
After 72 hours, the number of cells was measured using a hemacytometer to obtain propagation rate. The propagation inhibiting rate was calculated from comparison with the non-treated lot.

[5] = system: Trichophyton mentagrophytes; experiment: Agar dilution MIC (Example 3); type: cell-based; conditions: 168 h, agar plate, 27 °C, 7 days
Protocol: (§2) Series of diluted samples (20000, 10000, 5000, 2500, 1250, 625, 313, 156, 78, 39 mg/l) of the compounds of the invention were prepared using dimethylsulfoxide. A sensitive culture medium-N (Nissui Seiyaku Co.) was used for bacteria and a potato dextrose agar culture medium (Nissui Seiyaku Co.) was used for fungi. 0.5 ml of each sample was added to and mixed with 9.5 ml of the culture medium, poured into a Petri dish and solidified to obtain a plate. As a result, the concentration of the compounds of the invention in the agar culture medium were 1000, 500, 250, 125, 62.5, 31.3, 15.6, 7.8, 3.9, 2.0 mg/l. The bacterium inoculated were cultured in a bouillon for the assay of sensitivity (Nissui Seiyaku Co.) at 37 °C for 20 hours, and the fungi were cultured in the potato dextrose agar culture medium (Nissui Seiyaku Co.) for 10 days and then a 10^6 CFU/ml suspension was prepared from each of them. A test bacteria or fungi suspension was streaked on an agar plate containing the compound of the present invention with platinum wire loop, and the agar plate was cultured at 37±1 °C for 18 to 20 hours for bacteria or at 27 °C for 7 days for fungi. A concentration at which no growth was seen was taken as minimum inhibitory concentration (MIC). Symbols in the tables mean the followings; • A: Bacillus subtilis, • B: Trichophyton mentagrophytes, • C: Staphylococcus aureus, • D: Aspergillus niger, • E: Penicillium funiculosum, • F: Candida albicans, • G: Micrococcus luteus, • H: Corynebacterium aquaticum, • I: Chaetomium globosum, • J: Fusarium moniliforme, • K: Saccharomyces cerevisiae, • L: Rhodotorula rubra, • M: Cladosporium cladosporioides, • N: Alternaria alternata.

Staphylococcus aureus = experiment: Agar dilution MIC (Example 3); type: cell-based; conditions: agar plate, 37±1 °C, 18 to 20 hours
Protocol: as §2

Bacillus subtilis [6] = experiment: Agar dilution MIC (Example 3); type: cell-based; conditions: agar plate, 37±1 °C, 18 to 20 hours
Protocol: as §2

[7] = system: seawater diatom [Nitzschia closterium]; experiment: Inhibition of propagation of seawater diatom (Example 5); type: cell-based; conditions: Cylindrotheca closterium, 72 h, read-out: Propagation inhibiting rate(%) 500ppb
Protocol: A predetermined amount of each of the compounds of the invention was dissolved in culture media containing 10^5 /ml of a seawater diatom [Nitzschia closterium] at a logarithmic growth phase to prepare samples having a concentration of the compound in the medium of 500 ppb. The samples were stationary cultured at 22±1 °C for […] under continuous illumination.
After 72 hours, cells were collected by centrifugation and disrupted by addition of methanol to extract chlorophyll, and the amount of chlorophyll was measured from absorbance using a spectrophotometer to obtain propagation rate. The propagation inhibiting rate was calculated from comparison with the non-treated lot.

Saccharomyces cerevisiae = experiment: Agar dilution MIC (Example 3); type: cell-based; conditions: 168 h, agar plate, 27 °C, 7 days
Protocol: as §2

Candida albicans = experiment: Agar dilution MIC (Example 3); type: cell-based; conditions: 168 h, agar plate, 27 °C, 7 days
Protocol: as §2

Alternaria alternata = experiment: Agar dilution MIC (Example 3); type: cell-based; conditions: 168 h, agar plate, 27 °C, 7 days
Protocol: as §2

[8] = system: Corynebacterium aquaticum; experiment: Agar dilution MIC (Example 3); type: cell-based; conditions: Leifsonia aquatica, agar plate, 37±1 °C, 18 to 20 hours
Protocol: as §2

Fusarium moniliforme = experiment: Agar dilution MIC (Example 3); type: cell-based; conditions: Fusarium verticillioides, 168 h, agar plate, 27 °C, 7 days
Protocol: as §2

[9] = system: Cladosporium cladosporioides; experiment: Agar dilution MIC (Example 3); type: cell-based; conditions: 168 h, agar plate, 27 °C, 7 days
Protocol: as §2

Aspergillus niger = experiment: Agar dilution MIC (Example 3); type: cell-based; conditions: 168 h, agar plate, 27 °C, 7 days
Protocol: as §2

Chaetomium globosum = experiment: Agar dilution MIC (Example 3); type: cell-based; conditions: 168 h, agar plate, 27 °C, 7 days
Protocol: as §2

Penicillium funiculosum = experiment: Agar dilution MIC (Example 3); type: cell-based; conditions: Talaromyces funiculosus, 168 h, agar plate, 27 °C, 7 days
Protocol: as §2

Rhodotorula rubra = experiment: Agar dilution MIC (Example 3); type: cell-based; conditions: 168 h, agar plate, 27 °C, 7 days
Protocol: as §2

blue mussel = experiment: Antifouling (adhesion repellent) activity against blue mussel (Example 7); type: in vivo, Mytilus edulis; parameters: key: ++: not adhered in the zone and strong repellent effect is observed; +: adhesion in zone is observed but most of them adhered out of zone and repellent effect is observed; -: adhered in and out of zone alike and repellent effect is not observed; conditions: seawater, dark, 3 hours
Protocol: The compound of the invention was completely dissolved in 1 ml of acetone and the resulting solution was uniformly applied to a 4 cm-diameter zone drawn on a test plate. A zone coated with acetone alone as blank and zones coated with 1.0 mg and 0.5 mg of copper sulfate as a comparison chemical were also prepared. After drying, four blue mussel having a shell length of about 2 to 2.5 cm were adhered around each zone using a rubber piece as a spacer. The thus prepared test plate was immersed in a water tank to which seawater ran and left to stand in the dark for 3 hours.
The adhesion controlling effect (adhesion repellent activity) was obtained from comparison with copper sulfate used as a comparison chemical.
The evaluation of adhesion repellent activity was based on "Evaluation method of adhesion repellent substance to marine adhesion organisms using Mytilus edulis" written by Kazuo Ina and Hideo Etoh (Chemistry and Biology, vol.28 (No.2), pp.132-138, 1990).
Symbols in the table mean the followings; • ++: not adhered in the zone and strong repellent effect is observed, • +: adhesion in zone is observed but most of them adhered out of zone and repellent effect is observed, • -: adhered in and out of zone alike and repellent effect is not observed.

[10] = system: freshwater green alga (Scenedesmus pannonicus); experiment: Inhibition of propagation of freshwater algae (Example 6); type: cell-based; conditions: Desmodesmus pannonicus, 500ppb
Protocol: A predetermined amount each of the compounds of the invention was dissolved in a culture medium containing 10^5 /ml of a freshwater alga at a logarithmic growth phase to prepare samples having a concentration of the compound of the invention in the medium of 500 ppb and 50 ppb respectively. A shaking culture at 100 rpm was performed for […] under continuous illumination at 20±2 °C for freshwater diatom and at 23±2 °C for other algae.
After 72 hours and 168 hours, the […] of cells was measured using a hemacytometer to obtain propagation rate. The propagation inhibiting rate was calculated from comparison with the non-treated lot. Symbols in the tables mean the followings; • A: freshwater green alga (Chlorella pyrenoidosa), • B: freshwater blue-green alga (Microcystis aeruginosa), • C: freshwater diatom (Diatoma elongatum), • D: freshwater green alga (Scenedesmus pannonicus).

Rhodotorula mucilaginosa = experiment: Agar dilution MIC (Example 2); type: cell-based; conditions: 168 h, agar plate, 27 °C, 7 days
Protocol: as §1

Micrococcus luteus = experiment: Agar dilution MIC (Example 3); type: cell-based; conditions: agar plate, 37±1 °C, 18 to 20 hours
Protocol: as §2

[11] = 500ppb, after 72 hours, cell number vs non-treated lot

## CN(Cc1ccc(C(C)(C)C)cc1)Cc1ccc(Cl)c(Cl)c1 [Compound 3]
[1]
  Judgment (Target bacteria: A): + (inhibiting zone (10 to 20 mm) is observed)
[2]
  MIC: < 2 µg/mL
Bacillus subtilis [3]
  MIC: 125 µg/mL (≈ 372 µM)
[4]; 72 h
  inhibition at 0.05 ppm: 90%
  inhibition at 0.5 ppm: 94%
[5]
  MIC: < 2 µg/mL
Staphylococcus aureus
  MIC: 125 µg/mL (≈ 372 µM)
Bacillus subtilis [6]
  MIC: 125 µg/mL (≈ 372 µM)

## Cc1cccc(CN(C)Cc2ccc(C(C)(C)C)cc2)c1C [Compound 4]
[7]
  inhibition at 0.5 ppm: 70%
[1]
  Judgment (Target bacteria: A): ++ (strongly inhibiting zone (equal to or more than 21 mm) is observed)
[2]
  MIC: < 2 µg/mL
[4]; 50ppb, after 72 hours, cell number vs non-treated lot
  inhibition at 0.05 ppm: 64%
[4]; [11]
  inhibition at 0.5 ppm: 95%
Saccharomyces cerevisiae
  MIC: 63 µg/mL (≈ 213 µM)
[5]
  MIC: < 2 µg/mL
Candida albicans
  MIC: 62.5 µg/mL (≈ 212 µM)
Alternaria alternata
  MIC: 31.3 µg/mL (≈ 106 µM)
[8]
  MIC: 31.3 µg/mL (≈ 106 µM)
Fusarium moniliforme
  MIC: 31.3 µg/mL (≈ 106 µM)
[9]
  MIC: 31.3 µg/mL (≈ 106 µM)
Aspergillus niger
  MIC: 15.6 µg/mL (≈ 52.8 µM)
Chaetomium globosum
  MIC: 31.3 µg/mL (≈ 106 µM)
Penicillium funiculosum
  MIC: 15.6 µg/mL (≈ 52.8 µM)
Rhodotorula rubra
  MIC: 63 µg/mL (≈ 213 µM)

## CN(Cc1ccc(C(C)(C)C)cc1)C1CCc2ccccc21 (stereo not shown) [Compound 7]
[7]
  inhibition at 0.5 ppm: 91%
[1]
  Judgment (Target bacteria: A): ++ (strongly inhibiting zone (equal to or more than 21 mm) is observed)
[2]
  MIC: 1 µg/mL (≈ 3.41 µM)
Blue mussel; Amount of chemical 2.0 mg on 4 cm-diameter zone
  Judgment (adhesion repellent activity against blue mussel): ++
[4]; [11]
  inhibition at 0.5 ppm: 62%
[5]
  MIC: < 2 µg/mL
[10]; 72hr, read-out: Propagation inhibiting rate (%) 500ppb 72hr
  inhibition at 0.5 ppm: 92%
[10]; 168hr, read-out: Propagation inhibiting rate (%) 500ppb 168hr
  inhibition at 0.5 ppm: 99%

## CC(C)(C)c1ccc(CNCc2cccc(Cl)c2Cl)cc1 [Compound 16]
[7]
  inhibition at 0.5 ppm: 80%
[2]
  MIC: 7.8 µg/mL (≈ 24.2 µM)
Bacillus subtilis [3]
  MIC: 7.8 µg/mL (≈ 24.2 µM)
[4]; [11]
  inhibition at 0.5 ppm: 90%
[5]
  MIC: 7.8 µg/mL (≈ 24.2 µM)
Candida albicans
  MIC: 62.5 µg/mL (≈ 194 µM)
Aspergillus niger
  MIC: 125 µg/mL (≈ 388 µM)
Penicillium funiculosum
  MIC: 62.5 µg/mL (≈ 194 µM)
Bacillus subtilis [6]
  MIC: 7.8 µg/mL (≈ 24.2 µM)

## Cc1cccc(CNCc2ccc(C(C)(C)C)cc2)c1C [Compound 27]
[7]
  inhibition at 0.5 ppm: 90%
[2]
  MIC: 7.8 µg/mL (≈ 27.7 µM)
Bacillus subtilis [3]
  MIC: 31.3 µg/mL (≈ 111 µM)
Rhodotorula mucilaginosa
  MIC: 15.6 µg/mL (≈ 55.4 µM)
[4]; [11]
  inhibition at 0.5 ppm: 89%
Saccharomyces cerevisiae
  MIC: 63 µg/mL (≈ 224 µM)
Alternaria alternata
  MIC: 125 µg/mL (≈ 444 µM)
[8]
  MIC: 7.8 µg/mL (≈ 27.7 µM)
[9]
  MIC: 125 µg/mL (≈ 444 µM)
Chaetomium globosum
  MIC: 63 µg/mL (≈ 224 µM)
Micrococcus luteus
  MIC: 15.6 µg/mL (≈ 55.4 µM)
Rhodotorula rubra
  MIC: 125 µg/mL (≈ 444 µM)

## O=S(=O)([O-])[O-].[Cu+2] [Copper sulfate]
Blue mussel; Amount of chemical 0.5 mg on 4 cm-diameter zone
  Judgment (adhesion repellent activity against blue mussel): -
Blue mussel; Amount of chemical 1.0 mg on 4 cm-diameter zone
  Judgment (adhesion repellent activity against blue mussel): +
